Reference: patent US20240190883A1, “KRAS PROTEIN DEGRADERS, PHARMACEUTICAL COMPOSITIONS THEREOF, AND THEIR THERAPEUTIC APPLICATIONS” (BioTheryX, Inc., priority 2021, published 2024)
Where two headings read alike, the source gives them in different places.

Experiments:
Assay type in all cases: cell-based
[1] = system: Lovo (G13D) cells; test: Cell viability assay (CELLTITER-GLO), Lovo cells; conditions: 3 days incubation, 2.5% fetal bovine serum, read-out: Inhibition of Cancerous Cells IC50 (μM) Lovo (G13D)
Procedure: (§1) H358, H23, SW48, and AsPC-1 cells were cultured in RPMI 1640 media supplemented with 10% fetal bovine serum, streptomycin, and penicillin. Lovo and SW480 cells were cultured in DMEM media supplemented with 10% fetal bovine serum, streptomycin, and penicillin. The cell lines were plated in their respective medium supplemented with 2.5% fetal bovine serum, streptomycin, and penicillin. All cell lines were plated in white walled 96-well plates at 2,000 cells/well or 384-well plates at 500 cells/well, except Lovo, which were plated at 4,000 or 1,000 cells/well, respectively. The cells were incubated in DMSO (control) or a compound for 3 days at 37° C. under 5% C02. A CELLTITER-GLO® reagent (100 μL) was then added to each well. After a 10 min incubation with shaking, luminescence was measured using an ENVISION® multimode plate reader. IC50 values are summarized in Table 1 and percentages of inhibition are summarized in Table 2, where compound T1 is 2-(4-(2-methyl-3,5-diphenylpyrazolo[1,5-a]pyrimidin-7-yl)piperazin-1-yl)ethan-1-ol.

[2] = system: H358 (G12C) cells; test: Cell viability assay (CELLTITER-GLO), H358 cells; conditions: 3 days incubation, 2.5% fetal bovine serum, read-out: Inhibition of Cancerous Cells IC50 (μM) H358 (G12C)
Procedure: as §1

[3] = system: SW48 (wt) cells; test: Cell viability assay (CELLTITER-GLO), SW48 cells; conditions: 3 days incubation, 2.5% fetal bovine serum, read-out: Inhibition of Cancerous Cells IC50 (μM) SW48 (wt)
Procedure: as §1

[4] = system: AsPC-1 (G12D) cells; test: Cell viability assay (CELLTITER-GLO), AsPC-1 cells; conditions: 3 days incubation, 2.5% fetal bovine serum, read-out: Inhibition of Cancerous Cells IC50 (μM) AsPC-1 (G12D)
Procedure: as §1

[5] = system: SW480 (G12V) cells; test: Cell viability assay (CELLTITER-GLO), SW480 cells; conditions: 3 days incubation, 2.5% fetal bovine serum, read-out: Inhibition of Cancerous Cells IC50 (μM) SW480 (G12V)
Procedure: as §1

[6] = system: Molm-13 cells; test: Cell viability assay, inhibition of Molm-13 cells; conditions: Homo sapiens
Procedure: [Worded in the source for another cell line; this cell line is reported under the same test.] as §1

| SMILES | IC50 ([1]; Homo sapiens, 72 h) | IC50 ([2]; Homo sapiens, NCI-H358, 72 h) | IC50 ([3]; Homo sapiens, 72 h) | IC50 ([4]; Homo sapiens, ASPC1, 72 h) | IC50 ([5]; Homo sapiens, 72 h) | inhibition at 1 µM ([6]; compound at 1 μM) | inhibition at 3 µM ([6]; compound at 3 μM) | IC50 [1] | IC50 [2] | IC50 [3] | IC50 [4] | IC50 [5] |
| --- | --- | --- | --- | --- | --- | --- | --- | --- | --- | --- | --- | --- |
| Cc1nn2c(N3CCN(CCO)CC3)cc(-c3ccccc3)nc2c1-c1cccc(CCCCCCCCCN2CCN(C(=O)COc3ccc(N4CCC(=O)NC4=O)cc3)CC2)c1 [Compound C9, 1-(4-(2-(4-(9-(3-(7-(4-(2-hydroxyethyl)piperazin-1-yl)-2-methyl-5-phenyl-pyrazolo[1,5-a]pyrimidin-3-yl)phenyl)nonyl)piperazin-1-yl)-2-oxoethoxy)phenyl)dihydro-pyrimidine-2,4(1H,3H)-dione] | 0.47 µM | 1.1 µM | 0.48 µM | 0.96 µM | 0.42 µM |  |  |  |  |  |  |  |
| Cc1nn2c(N3CCN(CCO)CC3)cc(-c3ccccc3)nc2c1-c1cccc(CCCCCN2CCN(C(=O)COc3cccc(N4CCC(=O)NC4=O)c3)CC2)c1 [Compound C10, 1-(3-(2-(4-(5-(3-(7-(4-(2-Hydroxyethyl)piperazin-1-yl)-2-methyl-5-phenyl-pyrazolo[1,5-a]pyrimidin-3-yl)phenyl)pentyl)piperazin-1-yl)-2-oxoethoxy)phenyl)dihydro-pyrimidine-2,4(1H,3H)-dione] |  |  |  |  |  | 29% | 98% |  |  |  |  |  |
| Cc1nn2c(N3CCN(CCO)CC3)cc(-c3ccccc3)nc2c1-c1cccc(CCCCCCCN2CCN(C(=O)COc3cccc(N4CCC(=O)NC4=O)c3)CC2)c1 [Compound C11, 1-(3-(2-(4-(7-(3-(7-(4-(2-Hydroxyethyl)piperazin-1-yl)-2-methyl-5-phenyl-pyrazolo[1,5-a]pyrindin-3-yl)phenyl)heptyl)piperazin-1-yl)-2-oxoethoxy)phenyl)dihydro-pyrimidine-2,4(1H,3H)-dione] | 0.89 µM | 1.2 µM | 1.1 µM | 1.2 µM | 0.53 µM |  |  |  |  |  |  |  |
| Cc1nn2c(N3CCN(CCO)CC3)cc(-c3ccccc3)nc2c1-c1cccc(CCCCCCCCCN2CCN(C(=O)COc3cccc(N4CCC(=O)NC4=O)c3)CC2)c1 [Compound C12, 1-(3-(2-(4-(9-(3-(7-(4-(2-hydroxyethyl)piperazin-1-yl)-2-methyl-5-phenyl-pyrazolo[1,5-a]pyrimidin-3-yl)phenyl)nonyl)piperazin-1-yl)-2-oxoethoxy)phenyl)dihydro-pyrimidine-2,4(1H,3H)-dione] | 0.63 µM | 1.4 µM | 0.73 µM | 1 µM | 0.45 µM |  |  |  |  |  |  |  |
| Cc1nn2c(N3CCN(CCO)CC3)cc(-c3ccccc3)nc2c1-c1cccc(CCCN2CCN(C(=O)CNc3ccc4c(C5CCC(=O)NC5=O)nn(C)c4c3)CC2)c1 (centres unmarked) [Compound D7, 3-(6-((2-(4-(3-(3-(7-(4-(2-Hydroxyethyl)piperazin-1-yl)-2-methyl-5-phenyl-pyrazolo[1,5-a]pyrimidin-3-yl)phenyl)propyl)piperazin-1-yl)-2-oxoethyl)amino)-1-methyl-1H-indazol-3-yl)piperidine-2,6-dione] | 1.3 µM | 3.3 µM | 1.2 µM | 1.3 µM | 0.86 µM |  |  |  |  |  |  |  |
| Cc1nn2c(N3CCN(CCO)CC3)cc(-c3ccccc3)nc2c1-c1cccc(CCCCCN2CCN(C(=O)CNc3ccc4c(C5CCC(=O)NC5=O)nn(C)c4c3)CC2)c1 (centres unmarked) [Compound D8, 3-(6-((2-(4-(5-(3-(7-(4-(2-Hydroxyethyl)piperazin-1-yl)-2-methyl-5-phenyl-pyrazolo[1,5-a]pyrimidin-3-yl)phenyl)pentyl)piperazin-1-yl)-2-oxoethyl)amino)-1-methyl-1H-indazol-3-yl)piperidine-2,6-dione] | 0.63 µM | 1.2 µM | 0.72 µM | 1.3 µM | 0.4 µM |  |  |  |  |  |  |  |
| Cc1nn2c(N3CCN(CCO)CC3)cc(-c3ccccc3)nc2c1-c1cccc(CCCCCCCN2CCN(C(=O)CNc3ccc4c(C5CCC(=O)NC5=O)nn(C)c4c3)CC2)c1 (centres unmarked) [Compound D9, 3-(6-((2-(4-(7-(3-(7-(4-(2-Hydroxyethyl)piperazin-1-yl)-2-methyl-5-phenyl-pyrazolo[1,5-a]pyrimidin-3-yl)phenyl)heptyl)piperazin-1-yl)-2-oxoethyl)amino)-1-methyl-1H-indazol-3-yl)piperidine-2,6-dione] | 0.51 µM | 1 µM | 0.72 µM | 1.3 µM | 0.46 µM |  |  |  |  |  |  |  |
| Cc1nn2c(N3CCN(CCO)CC3)cc(-c3ccccc3)nc2c1-c1cccc(CCCN2CCN(C(=O)CNc3cccc4c(C5CCC(=O)NC5=O)nn(C)c34)CC2)c1 (centres unmarked) [Compound D10, 3-(7-((2-(4-(3-(3-(7-(4-(2-Hydroxyethyl)piperazin-1-yl)-2-methyl-5-phenyl-pyrazolo[1,5-a]pyrimidin-3-yl)phenyl)propyl)piperazin-1-yl)-2-oxoethyl)amino)-1-methyl-1H-indazol-3-yl)piperidine-2,6-dione] | 0.87 µM | 2.4 µM | 1.3 µM | 1.4 µM | 0.63 µM |  |  |  |  |  |  |  |
| Cc1nn2c(N3CCN(CCO)CC3)cc(-c3ccccc3)nc2c1-c1cccc(CCCCCN2CCN(C(=O)CNc3cccc4c(C5CCC(=O)NC5=O)nn(C)c34)CC2)c1 (centres unmarked) [Compound D11, 3-(7-((2-(4-(5-(3-(7-(4-(2-Hydroxyethyl)piperazin-1-yl)-2-methyl-5-phenyl-pyrazolo[1,5-a]pyrimidin-3-yl)phenyl)pentyl)piperazin-1-yl)-2-oxoethyl)amino)-1-methyl-1H-indazol-3-yl)piperidine-2,6-dione] | 0.73 µM | 1.2 µM | 0.84 µM | 1.4 µM | 0.48 µM |  |  |  |  |  |  |  |
| Cc1nn2c(N3CCN(CCO)CC3)cc(-c3ccccc3)nc2c1-c1cccc(CCCCCCCN2CCN(C(=O)CNc3cccc4c(C5CCC(=O)NC5=O)nn(C)c34)CC2)c1 (centres unmarked) [Compound D12, 3-(7-((2-(4-(7-(3-(7-(4-(2-Hydroxyethyl)piperazin-1-yl)-2-methyl-5-phenyl-pyrazolo[1,5-a]pyrimidin-3-yl)phenyl)heptyl)piperazin-1-yl)-2-oxoethyl)amino)-1-methyl-1H-indazol-3-yl)piperidine-2,6-dione] | 0.92 µM | 1.2 µM | 0.96 µM | 1.4 µM | 0.47 µM |  |  |  |  |  |  |  |
| Cc1nn2c(N3CCN(CCO)CC3)cc(-c3ccccc3)nc2c1-c1cccc(CCCN2CCN(C(=O)CNc3ccc4c(N5CCC(=O)NC5=O)nn(C)c4c3)CC2)c1 [Compound D13, 1-(6-((2-(4-(3-(3-(7-(4-(2-Hydroxyethyl)piperazin-1-yl)-2-methyl-5-phenyl-pyrazolo[1,5-a]pyrimidin-3-yl)phenyl)propyl)piperazin-1-yl)-2-oxoethyl)amino)-1-methyl-1H-indazol-3-yl)dihydropyrimidine-2,4(1H,3H)-dione] | 0.66 µM | 1.1 µM | 2 µM | 2.3 µM | 0.76 µM |  |  |  |  |  |  |  |
| Cc1nn2c(N3CCN(CCO)CC3)cc(-c3ccccc3)nc2c1-c1cccc(CCCCCN2CCN(C(=O)CNc3ccc4c(N5CCC(=O)NC5=O)nn(C)c4c3)CC2)c1 [Compound D14, 1-(6-((2-(4-(5-(3-(7-(4-(2-Hydroxyethyl)piperazin-1-yl)-2-methyl-5-phenyl-pyrazolo[1,5-a]pyrimidin-3-yl)phenyl)pentyl)piperazin-1-yl)-2-oxoethyl)amino)-1-methyl-1H-indazol-3-yl)dihydropyrimidine-2,4(1H,31H)-dione] |  |  |  |  |  |  |  | 0.62 µM | 2.2 µM | > 10 µM | > 10 µM | 1.1 µM |
| Cc1nn2c(N3CCN(CCO)CC3)cc(-c3ccccc3)nc2c1-c1cccc(CCCCCCCN2CCN(C(=O)CNc3ccc4c(N5CCC(=O)NC5=O)nn(C)c4c3)CC2)c1 [Compound D15, 1-(6-((2-(4-(7-(3-(7-(4-(2-Hydroxyethyl)piperazin-1-yl)-2-methyl-5-phenyl-pyrazolo[1,5-a]pyrimidin-3-yl)phenyl)heptyl)piperazin-1-yl)-2-oxoethyl)amino)-1-methyl-1H-indazol-3-yl)dihydropyrimidine-2,4(1H,3H)-dione] | 0.64 µM | 1.3 µM | 1.1 µM | 1.4 µM | 0.56 µM |  |  |  |  |  |  |  |
